From patent publication US5492906A, “Derivatives of thieno-triazolo-diazepine and therapeutic compositions containing them” (Societe de Conseils de Recherches et d'Applications …, priority 1989, dated 1996) come the findings set out here.

A word on the LD50: it is the dose at which mortality reaches 50%. Higher therefore signals lower toxicity.

A short description of data set [1]: Toxicity on the mice. As to conditions: mouse, in vivo, IP route.
Data set [2] addresses benzodiazepine receptors. The data set can be described thus: Inhibition of the binding to benzodiazepine receptors (rat brains). The note with it: rat brains incubated 1 h 30 at 4° C.; 3H-RO-15-4788 and 3H-RO-5-4864 as tracers; Table I; read-out: BDZ receptors (inhibition of the binding to benzodiazepine receptors).
Data set [3] has as its system bronchospasm induced by the PAF. The data set can be described thus: Action on the bronchospasm induced by the PAF in anaesthetized guinea-pigs. In kind it is in vivo, guinea-pig. As to conditions: male Hartley guinea-pigs, oral, 1 hour before PAF i.v.; for Percentage of action: change versus controls; for Percentage of bronchoconstriction: controls 79. ± 5.55, dose not given. The text has this:
3) Action on the bronchospasm induced by the PAF
The PAF intravenous injection in anaesthetized guinea-pigs induces a bronchoconstriction with a leucopeny and a thrombocytopeny, according to the method described in S. DESQUAND, C. TOUVAY, J. RANDON, V. LAGENTE, B. VILAIN, I. MARIDONNEAU-PARINI, A. ETIENNE, J. LEFORT, P. BRAQUET and B. VARGAFTIG. Interference of BN 52021 (Ginkolide B) with the bronchopulmonary effects of PAF-acether in the guinea-pig. Eur. J. Pharmacol. 127: 83-95, 1986.
Male Hartley guinea-pigs (400-450 g) (Charles River) anaesthetized with urethane (2 g/kg IP), then are thracheotomized and submitted to a forced respiration with a breathing pump:70-80 strokes/mn, 1 ml of air/ 100 g per stroke. A catheter is introduced in the jugular vein for the injections, an other is introduced in the carotic artery for blood takings. The initial resistance is kept constant under the pressure of 10 cm of water in accordance with the Konzett and Rossler method and the air in excess is measured with a transducor for bronchospasm UGO BASILE together with an enregistror GEMINI. The guinea-pigs had received an IV injection of pancuronium (Pavulon) to inhibit their spontaneous respiration.
The compound according to the invention and the reference compound WEB 2086 (see the above cited Boehringer patent) have been prepared as suspension in gummy water and administrated orally 1 hour before the stimulation by the PAF.
The bronchoconstriction is appreciated by the calculation of the percentage of bronchoconstriction [formula] wherein A stands for induced bronchoconstriction in mm and B stands for maximum bronchoconstriction in mm.

Data set [4] concerns platelet agregation induced by PAF. The data set can be described thus: Inhibition of platelet agregation induced by PAF. In kind it is cell-based, New Zealand rabbits. The note with it: Oryctolagus cuniculus, New Zealand rabbit platelets, agregometer at 57° C., Table I.

pIC50: −log10 of the molar value.

For `Cc1nnc2n1-c1sc3c(c1C(c1ccccc1Cl)=NC2)CCN(C(=S)NS(=O)(=O)c1ccc[nH]1)C3` [Example 33, 6-(2-chlorophenyl)-9-(2-pyrrolylsulfonyl)thiocarbamoyl7,8,9,10-tetrahydro-1-methyl-4H-pyrido[4',3':4,5]thieno[3,2-f]1,2,4-triazolo[4,3-a]1,4-diazepine], in data set [1], the LD50 fell in the range of 400 to 1000 mg/kg. Besides, in data set [2], the pIC50 is 5.04. In data set [3], the Percentage of action is on record as -71.7% and the Percentage of bronchoconstriction is recorded as 22.4%. In addition, in data set [4], the pIC50 was 6.69.
The corresponding values for `Cc1nnc2n1-c1sc3c(c1C(c1ccccc1Cl)=NC2)CCN(C(=O)Nc1ccc(Oc2ccccc2)cc1)C3` [Example 18, 6-(2-chlorophenyl)-9-(4-phenoxy)phenylcarbamoyl-7,8,9,10-tetrahydro-1-methyl 4H-pyrido[4',3':4,5]thieno[3,2-f]1,2,4-triazolo[4,3-a]1,4-diazepine] are 400 to 1000 mg/kg, 6.07, -81.8%, 14.1% and 7.48.
